# Activity calls are given as the source filed them. The calls are words filed in the database; no cut-off is given here.
# Legend:
# Bombus terrestris [1] = experiment: Toxicity against worker Bombus terrestris (bumblebee) assessed as mortality at 30 mg a.i./l, po administered through pollen measured after 7 weeks; assay type: functional; settings: 1176 h
# Bombus terrestris [2] = experiment: Contact toxicity against worker Bombus terrestris (bumblebee) assessed as reduction in reproduction at 30 mg a.i./l applied on the dorsal thorax for 11 weeks measured once a week for 11 weeks relative to control; assay type: functional, organism-based
# Bombus terrestris [3] = experiment: Toxicity against worker Bombus terrestris (bumblebee) assessed as mortality at 30 mg a.i./l, po administered through pollen for 11 weeks measured everyday for 3 days followed by once a week for 11 weeks; assay type: functional
# Bombus terrestris [4] = experiment: Toxicity against po dosed worker Bombus terrestris (bumblebee) administered through sugar water for 11 weeks measured everyday for 3 days followed by once a week for 11 weeks; assay type: functional
# Bombus terrestris [5] = experiment: Toxicity against worker Bombus terrestris (bumblebee) assessed as mortality at 30 mg a.i./l, po administered through sugar water for 11 weeks measured everyday for 3 days followed by once a week for 11 weeks; assay type: functional
# Bombus terrestris [6] = experiment: Contact toxicity against worker Bombus terrestris (bumblebee) assessed as mortality at 30 mg a.i./l applied on the dorsal thorax for 11 weeks measured everyday for 3 days followed by once a week for 11 weeks; assay type: functional
# Bombus terrestris [7] = experiment: Contact toxicity against worker Bombus terrestris (bumblebee) assessed as mortality at 30 mg a.i./l applied on the dorsal thorax measured up to 1 week; assay type: functional, organism-based
# Bombus terrestris [8] = experiment: Toxicity against worker Bombus terrestris (bumblebee) assessed as reduction in reproduction at 30 mg a.i./l, po administered through pollen for 11 weeks measured once a week for 11 weeks; assay type: functional; design: scale not given: the % may be the effect or the level left
structure (smiles),measurement,setting,value
Cc1c(COC(=O)[C@@H]2[C@H](/C=C(\Cl)C(F)(F)F)C2(C)C)cccc1-c1ccccc1 (relative stereo) [BIFENTHRIN],mortality at 30 µg/mL,Bombus terrestris [1],100%
same,Activity,Bombus terrestris [2],Active
same,mortality at 30 µg/mL,Bombus terrestris [3],90%
same,LC50,Bombus terrestris [4],0.36 mgAi/L
same,NOAEL,Bombus terrestris [4],0.03 mgAi/L
same,mortality at 30 µg/mL,Bombus terrestris [5],50%
same,mortality at 30 µg/mL,Bombus terrestris [6],100%
same,Activity,Bombus terrestris [7],Active
same,Activity,Bombus terrestris [8],50%
